Measurements from patent publication US20260053812A1, “METHODS OF TREATING HYPERTENSION WITH A COMBINATION OF AN ALDOSTERONE SYNTHASE INHIBITOR AND A DIURETIC” (Mineralys Therapeutics, Inc., priority 2022, published 2026).

Test: Adverse events (TEAEs, SAEs, AESI; Safety Analysis Set)
Text: In analyses performed on the Safety Analysis Set, subjects will be analyzed according to their actual treatment received.

CC(=O)N[C@H]1CC[C@H](NC(=O)CN2CCN(c3nncc(-c4ccc(C)cc4)n3)CC2)CC1 [Compound A HBr]
(10.0) %: On-treatment TEAE, Infections and infestations, % (Part 1, 25 mg BID (N = 30)) | On-treatment TEAE, Investigations, % (Part 1, 25 mg BID (N = 30)) | On-treatment TEAE, Nervous system disorders, % (Part 1, 25 mg BID (N = 30)) | On-treatment TEAE, Urinary tract infection, % (Part 1, 25 mg BID (N = 30)) | On-treatment TEAE, Blood creatinine increased, % (Part 1, 100 mg QD (N = 30)) | On-treatment TEAE, Blood creatinine increased, Mild, % (Part 1, 100 mg QD (N = 30))
(17.9) %: On-treatment TEAE, Metabolism and nutrition disorders, % (Part 1, 50 mg QD (N = 28)) | On-treatment TEAE, Metabolism and nutrition disorders, Mild, % (Part 1, 50 mg QD (N = 28))
(13.3) %: Subjects with any On-treatment TEAEs, Moderate, % (Part 1, 25 mg BID (N = 30)) | On-treatment TEAE, Glomerular filtration rate decreased, Mild, % (Part 1, 100 mg QD (N = 30))
(3.6) %: On-treatment TEAE, Cardiac disorders, % (Part 1, 50 mg QD (N = 28)) | On-treatment TEAE, Gastrointestinal disorders, % (Part 1, 50 mg QD (N = 28)) | On-treatment TEAE, Gastrointestinal disorders, Mild, % (Part 1, 50 mg QD (N = 28)) | On-treatment TEAE, General disorders and administration site conditions, Mild, % (Part 1, 50 mg QD (N = 28)) | On-treatment TEAE, Headache, % (Part 1, 50 mg QD (N = 28)) | On-treatment TEAE, Headache, Mild, % (Part 1, 50 mg QD (N = 28)) | On-treatment TEAE, Investigations, % (Part 1, 50 mg QD (N = 28)) | On-treatment TEAE, Investigations, Mild, % (Part 1, 50 mg QD (N = 28)) | On-treatment TEAE, Nervous system disorders, Mild, % (Part 1, 50 mg QD (N = 28)) | On-treatment TEAE, Urinary tract infection, Mild, % (Part 1, 50 mg QD (N = 28))
(26.7) %: On-treatment TEAE, Metabolism and nutrition disorders, Mild, % (Part 1, 25 mg BID (N = 30)) | On-treatment TEAE, Hyperkalaemia, % (Part 1, 100 mg QD (N = 30))
(4.3) %: On-treatment TEAE, Vascular disorders, Moderate, % (Part 1, 12.5 mg QD (N = 23)) | Subjects with any On-treatment TEAEs, Severe, % (Part 1, 12.5 mg QD (N = 23)) | TEAE leading to permanent discontinuation from study drug, Cardiac disorders, % (Part 1, 12.5 mg QD (N = 23)) | TEAE leading to permanent discontinuation from study drug, Coronary artery disease, % (Part 1, 12.5 mg QD (N = 23)) | TEAE leading to permanent discontinuation from study drug, Dizziness, % (Part 1, 12.5 mg QD (N = 23)) | TEAE leading to permanent discontinuation from study drug, Nervous system disorders, % (Part 1, 12.5 mg QD (N = 23))
(7.1) %: On-treatment TEAE, Dizziness, % (Part 1, 50 mg QD (N = 28)) | On-treatment TEAE, General disorders and administration site conditions, % (Part 1, 50 mg QD (N = 28)) | On-treatment TEAE, Hypertension, % (Part 1, 50 mg QD (N = 28)) | On-treatment TEAE, Hypertension, Moderate, % (Part 1, 50 mg QD (N = 28)) | On-treatment TEAE, Infections and infestations, % (Part 1, 50 mg QD (N = 28)) | On-treatment TEAE, Infections and infestations, Moderate, % (Part 1, 50 mg QD (N = 28)) | On-treatment TEAE, Nervous system disorders, % (Part 1, 50 mg QD (N = 28)) | On-treatment TEAE, Urinary tract infection, % (Part 1, 50 mg QD (N = 28)) | On-treatment TEAE, Vascular disorders, % (Part 1, 50 mg QD (N = 28)) | On-treatment TEAE, Vascular disorders, Moderate, % (Part 1, 50 mg QD (N = 28))
(6.7) %: On-treatment TEAE, Blood and lymphatic system disorders, % (Part 1, 25 mg BID (N = 30)) | On-treatment TEAE, Blood and lymphatic system disorders, Mild, % (Part 1, 25 mg BID (N = 30)) | On-treatment TEAE, Headache, % (Part 1, 25 mg BID (N = 30)) | On-treatment TEAE, Headache, Mild, % (Part 1, 25 mg BID (N = 30)) | On-treatment TEAE, Hyperkalaemia, Moderate, % (Part 1, 25 mg BID (N = 30)) | On-treatment TEAE, Infections and infestations, Mild, % (Part 1, 25 mg BID (N = 30)) | On-treatment TEAE, Investigations, Mild, % (Part 1, 25 mg BID (N = 30)) | On-treatment TEAE, Metabolism and nutrition disorders, Moderate, % (Part 1, 25 mg BID (N = 30)) | On-treatment TEAE, Nervous system disorders, Mild, % (Part 1, 25 mg BID (N = 30)) | On-treatment TEAE, Urinary tract infection, Mild, % (Part 1, 25 mg BID (N = 30)) | On-treatment TEAE, Gastrointestinal disorders, % (Part 1, 100 mg QD (N = 30)) | On-treatment TEAE, Gastrointestinal disorders, Mild, % (Part 1, 100 mg QD (N = 30))
(23.3) %: On-treatment TEAE, Hyperkalaemia, Mild, % (Part 1, 25 mg BID (N = 30))
(52.2) %: Subjects with any On-treatment TEAEs, Mild, % (Part 1, 12.5 mg QD (N = 23))
(30.0) %: On-treatment TEAE, Hyperkalaemia, % (Part 1, 25 mg BID (N = 30))
(16.7) %: On-treatment TEAE, Glomerular filtration rate decreased, % (Part 1, 100 mg QD (N = 30))
3.3%: Subjects with any On-treatment TEAEs leading to withdrawal from study drug, % (Part 1, 25 mg BID (N = 30)) | TEAE leading to permanent discontinuation from study drug, Hyperkalaemia, % (Part 1, 25 mg BID (N = 30)) | TEAE leading to permanent discontinuation from study drug, Hypertension, % (Part 1, 25 mg BID (N = 30)) | TEAE leading to permanent discontinuation from study drug, Metabolism and nutrition disorders, % (Part 1, 25 mg BID (N = 30)) | TEAE leading to permanent discontinuation from study drug, Vascular disorders, % (Part 1, 25 mg BID (N = 30))
(10.7) %: On-treatment TEAE, Hyperkalaemia, % (Part 1, 50 mg QD (N = 28)) | On-treatment TEAE, Hyperkalaemia, Mild, % (Part 1, 50 mg QD (N = 28))
(17.4) %: Subjects with any On-treatment TEAEs leading to withdrawal from study drug, % (Part 1, 12.5 mg QD (N = 23))
(3.3) %: On-treatment TEAE, Cortisol decreased, % (Part 1, 25 mg BID (N = 30)) | On-treatment TEAE, Cortisol decreased, Mild, % (Part 1, 25 mg BID (N = 30)) | On-treatment TEAE, Gastrointestinal disorders, % (Part 1, 25 mg BID (N = 30)) | On-treatment TEAE, Gastrointestinal disorders, Mild, % (Part 1, 25 mg BID (N = 30)) | On-treatment TEAE, Hypertension, % (Part 1, 25 mg BID (N = 30)) | On-treatment TEAE, Infections and infestations, Moderate, % (Part 1, 25 mg BID (N = 30)) | On-treatment TEAE, Investigations, Moderate, % (Part 1, 25 mg BID (N = 30)) | On-treatment TEAE, Vascular disorders, % (Part 1, 25 mg BID (N = 30)) | On-treatment TEAE, Vascular disorders, Mild, % (Part 1, 25 mg BID (N = 30))
(8.7) %: On-treatment TEAE, Vascular disorders, Mild, % (Part 1, 12.5 mg QD (N = 23)) | TEAE leading to permanent discontinuation from study drug, Hyperkalaemia, % (Part 1, 12.5 mg QD (N = 23)) | TEAE leading to permanent discontinuation from study drug, Metabolism and nutrition disorders, % (Part 1, 12.5 mg QD (N = 23))
(14.3) %: Subjects with any On-treatment TEAEs, Mild, % (Part 1, 50 mg QD (N = 28))
(13.0) %: Subjects with any On-treatment TEAEs, Moderate, % (Part 1, 12.5 mg QD (N = 23))
(46.7) %: Subjects with any On-treatment TEAEs, Mild, % (Part 1, 25 mg BID (N = 30))
(21.4) %: Subjects with any On-treatment TEAEs, Moderate, % (Part 1, 50 mg QD (N = 28))
(33.3) %: On-treatment TEAE, Metabolism and nutrition disorders, % (Part 1, 25 mg BID (N = 30))
